Here are results for 1 compound from patent publication US20200255828A1, “METHODS AND COMPOSITIONS FOR ALTERING FUNCTION AND STRUCTURE OF CHROMATIN LOOPS AND/OR DOMAINS” (THE BROAD INSTITUTE, INC., priority 2017, published 2020).

The test system of this test is HCT-116 RAD21-mAC cells. Nature of the test: PRO-Seq nascent transcription after cohesin loss. It is filed as cell-based, human. The source says: Finally, Applicants sought to investigate the role of cohesin in regulating gene expression. Cohesin has been proposed to facilitate interactions between enhancers and promoters (Kagey et al., 2010; Merkenschlager and Nora, 2016). Loop domains are thought to regulate this process by preventing enhancers from forming ectopic interactions with targets that lie in a different loop domain (Lupiáñez et al., 2015; Flavahan et al., 2016). Applicants therefore characterized the effects of cohesin loss on nascent transcription by performing precision nuclear run-on sequencing (PRO-Seq) in treated and untreated HCT116 cells (Engreitz et al., 2016; Jonkers and Lis, 2015) (FIG. 7A). Applicants chose an early timepoint—6 hours after auxin treatment—with the aim of examining direct consequences, rather than indirect effects due to changes in cell state.
To measure changes in transcription resulting from cohesin loss, Applicants performed precision run-on sequencing (PRO-Seq) (Jonkers and Lis, 2015), a variant of global run-on sequencing (GRO-Seq), using a single biotinylated nucleotide (biotin-11-CTP) as previously described (Engreitz et al., 2016). Applicants made one modifications to the protocol: at the end of each biotin enrichment, Applicants eluted biotinylated RNAs from the streptavidin-coated magnetic beads by heating beads in 25 μl of 20 mM Tris-HCl pH 7.5, 10 mM EDTA, 2% N-lauroylsarcosine at 95° C. for 5 minutes, followed by a magnetic-bead nucleic acid purification with 20 μl of MyONE SILANE beads. During the nuclei preparation step, Applicants processed pairs of RAD21-mAC cells with and without auxin treatment in parallel. In addition, Applicants performed PRO-Seq on HCT-116 CMV-OsTIR1 cells, the parental cell line of RAD21-mAC containing the OsTIR1 gene integrated at the AAVS1 locus and no mAID tags integrated on any protein. By performing PRO-Seq on CMV-OsTIR1 cells with and without auxin treatment, Applicants could control for transcriptional effects of the auxin treatment itself on HCT-116 cells, as well as any consequences of tagging the RAD21 protein.
For analysis of PRO-Seq data, Applicants aligned 30-bp paired-end reads to the hg19 reference (bowtie2 v2.1.0, (Langmead and Salzberg, 2012)), removed duplicate reads (Picard picard.sourceforge.net), and discarded reads with MAPQ <30. Applicants counted reads overlapping RefSeq genes (collapsed by gene symbol to the longest isoform)—this quantification procedure includes signal both at the paused position (near the TSS) as well as in the gene body. Applicants identified genes showing significant differences in transcription with DESeq2 (Love et al., 2014), excluding genes with zero coverage in all samples and calling significance at Benjamini-Hochberg corrected p-value <0.05.
To determine whether there were global changes in the total amount of transcription (up or down) that would affect the normalization and analysis of these experiments, Applicants included a spike-in control in three of the four PRO-Seq replicates for each of untreated and treated RAD21-mAC and CMV-OsTIR1 cells. Specifically, Applicants added ˜500,000 Drosophila S2 cells at the beginning of the protocol. Upon sequencing of these libraries, Applicants counted the number of spike-in reads by aligning to the Drosophila genome (dme13) with bowtie2 v2.1.0.
Assessment of changes in transcription after cohesin loss. […]

SMILES strings stand for the structures.

Regarding `O=C(O)Cc1c[nH]c2ccccc12` [auxin, indole-3-acetic acid], under “upon auxin treatment”, the AKAP12 expression down-regulation is 3.3 fold, the IER5L expression down-regulation worked out at 2.6 fold and the KITLG expression down-regulation stood at 2.73 fold. For the same compound, the “number of genes 2-fold downregulated with p<0.05 after auxin treatment” value (vs untreated HCT-116-CMV-OsTIR1 control) was 43. Further, under “vs untreated RAD21-mAC cells”, the “number of genes 1.75-fold downregulated with p<0.05 after auxin treatment” value was found to be 49.
